# Data from paper PMC3834177 (Cancer Chemotherapy and Pharmacology, 2013).
# Marks after values point to notes of the source that are not given here.
# Legend:
# [1] = Midazolam PK when administered with midostaurin; conditions: for change in AUCinf: day 3 (co-administration of midostaurin) vs day 1; for AUC0–inf, adjusted geometric mean / AUC0–last, adjusted geometric mean / C max, adjusted geometric mean / t max, median / AUC(0-inf) / AUC(0-t) / Cmax: n = 18; for AUC(0-inf): AUC0–inf; for AUC(0-inf) / AUC(0-t) / Cmax: adjusted geometric mean; for AUC(0-t): AUC0–last; for Cmax: C max
# Text: (§1) Both inhibition and induction of midazolam clearance were investigated.
# Similarly, blood and urine samples were taken on days 1, 3, 6, 7, 8, and 9 to measure the levels of 4β-hydroxycholesterol in plasma and the 6β-hydroxycortisol/cortisol ratio in urine, markers of CYP3A4 activity.
# The PK parameters of midazolam and its metabolites (C max, t max, AUC0–last, AUCinf, and t 1/2) were derived using a noncompartmental method with the aid of WinNonLin 5.2. […] Following log transformation, the primary PK parameters were analyzed using a linear, mixed-effects model using the term of treatment as a fixed factor (reference, test 1, test 2) and subject as a random factor. A point estimate and the corresponding 90 % CI for the difference in test 1 versus reference and the difference in test 2 versus reference were derived from the respective contrasts of the model estimates and anti-logged to obtain the GMR and respective 90 % CI.
# (§2) The concentration of ketoconazole in plasma was assessed using a validated LC–MS/MS assay with an LLOQ of 50.0 ng/mL (WuXi Pharmatech Co, Ltd, China). The concentration of rifampicin in plasma was measured using a validated LC–MS/MS assay with an LLOQ of 5.0 ng/mL (SGS, Cephac Europe, SAS). Plasma concentrations of midazolam and its metabolite 1′-hydroxymidazolam, which is generated by CYP3A4 and CYP3A5 in humans, were measured using a validated LC–MS/MS assay with an LLOQ of ≈0.100 ng/mL (SGS, Cephac Europe, SAS). The plasma concentration of 4β-hydroxycholesterol was measured using a validated LC–MS/MS assay with an LLOQ of 3.0 ng/mL (SGS, Cephac Europe, SAS). The concentrations of 6β-hydroxycortisol and cortisol in urine were determined using validated LC–MS/MS assays with an LLOQ of 10.0 ng/mL for 6β-hydroxycortisol and 1.0 ng/mL for cortisol. The ratio of 6β-hydroxycortisol to cortisol was subsequently calculated (SGS, Cephac Europe, SAS). See Supplementary Table 2 for detailed bioanalytical methods for all 3 studies.
# [2] = Midostaurin PK when administered with rifampicin; conditions: for AUC0–inf, adjusted geometric mean / AUC0–last, adjusted geometric mean / C max, adjusted geometric mean / t 1/2, adjusted geometric mean / t max, median: plasma, n = 20
# Method: These endogenous molecules served as exploratory biomarkers for CYP3A4 activity in vivo [21, 22].
# A point estimate and the corresponding 90 % CI for the treatment effect (test vs reference) were calculated. These were anti-logged to obtain the GMR and respective 90 % CI. […] The median difference was estimated with the Hodges–Lehmann estimator and its respective exact two-sided 90 % CI. All formal comparative statistical analyses were performed using SAS software.
# as §2
# CYP3A4/5 = conditions: in vitro; read-out: IC50, CYP3A4/5 activity (midazolam 1′-hydroxylation); cited from earlier work
# [3] = Midostaurin PK when administered with ketoconazole
# Method: According to the US Food and Drug Administration, ketoconazole 400 mg once daily is the recommended dose to evaluate DDIs involving CYP3A4 inhibition. [drawing 1]
# Adverse events (AEs) were recorded during the study and up to 1 month (28 days) after the end of study. Volunteers remained at the clinic until AEs were common toxicity criteria (CTC) grade ≤1.
# A point estimate and the corresponding 90 % CI for the treatment effect were calculated for the test treatment compared with the reference. These were anti-logged to obtain the point estimate and the 90 % CI for the geometric mean ratio (GMR) on the untransformed scale. […] All ANOVAs were performed using SAS software (SAS Institute Inc., Cary, NC, USA).
# as §2
# mutant FLT3 = conditions: in vitro; read-out: half-maximal inhibitory concentration (IC50), mutant FLT3; cited from earlier work
# [4] = system: human serum protein α1-acid glycoprotein (AAG); parameters: method as in PMID 11230495; conditions: cited from earlier work
# [5] = cited from earlier work
# [6] = Safety and tolerability, midazolam study
# Text: as §1
# [7] = day 3 (co-administration of midostaurin) vs midazolam alone day 1
# [8] = day 8 (after repeated doses of midostaurin) vs day 1
# [9] = plasma, Midazolam + midostaurin (day 3)
# [10] = Placebo + midostaurin arm, rifampicin study
# [11] = plasma, Ketoconazole + midostaurin arm, n = 18
# [12] = plasma, Placebo + midostaurin arm, ketoconazole study, n = 18
# [13] = human, plasma, oral, 4 mg, plasma, Midazolam (day 1)
# [14] = human, plasma, oral, 4 mg, plasma, Midazolam (day 8)
# [15] = human, plasma, oral, plasma, Midazolam + midostaurin (day 3)
# [16] = midazolam study: MZ 4 mg (day 1), MZ 4 mg + Mido 100 mg (day 3), Mido 50 mg twice daily (days 4–6)
# [17] = midazolam study: second MZ 4 mg alone (day 8, after Mido)
smiles,measurement,setting,value
OCc1ncc2n1-c1ccc(Cl)cc1C(c1ccccc1F)=NC2 [1′-Hydroxymidazolam],change in AUCinf,[1],No change
same,average decrease in C max,[1]; [7],1.2 fold
same,"t max, Hodges–Lehmann estimate of median difference (90 % distribution-free CI)",[1]; day 3/day 1 comparison,0.13 (−0.50 to 1.50)^b h
same,average decrease in AUCinf,[1]; [8],1.3 fold
same,average decrease in C max,[1]; [8],1.3 fold
same,"t max, Hodges–Lehmann estimate of median difference (90 % distribution-free CI)",[1]; day 8/day 1 comparison,0.01 (−0.23 to 0.26)^c h
same,"AUC0–inf, adjusted geometric mean","[1]; plasma, Midazolam (day 1), midazolam 4 mg alone",18.18 ng·h/mL
same,"AUC0–last, adjusted geometric mean","[1]; plasma, Midazolam (day 1)",15.91 ng·h/mL
same,"C max, adjusted geometric mean","[1]; plasma, Midazolam (day 1)",5.83 ng/mL
same,"t max, median","[1]; plasma, Midazolam (day 1)",0.50 h
same,"AUC0–inf, adjusted geometric mean","[1]; plasma, Midazolam (day 8), midazolam 4 mg alone after repeated midostaurin",13.74 ng·h/mL
same,"AUC0–last, adjusted geometric mean","[1]; plasma, Midazolam (day 8)",12.57 ng·h/mL
same,"C max, adjusted geometric mean","[1]; plasma, Midazolam (day 8)",4.37 ng/mL
same,"t max, median","[1]; plasma, Midazolam (day 8)",0.50 h
same,"AUC0–inf, adjusted geometric mean","[1]; plasma, Midazolam + midostaurin (day 3), midazolam 4 mg + midostaurin 100 mg",18.54 ng·h/mL
same,"AUC0–last, adjusted geometric mean",[1]; [9],15.87 ng·h/mL
same,"C max, adjusted geometric mean",[1]; [9],4.76 ng/mL
CN(C(=O)c1ccccc1)[C@@H]1C[C@H]2O[C@@](C)([C@@H]1O)n1c3ccccc3c3c4c(c5c6ccccc6n2c5c31)C(=O)NC4 [CGP62221],decrease in exposure (AUClast) in midostaurin + rifampicin arm,[2]; compared with midostaurin alone,13.0 fold
same,"AUC0–inf, adjusted geometric mean","[2]; Placebo + midostaurin arm (midostaurin 50 mg once), rifampicin study","35,146.80 ng h/mL"
same,"AUC0–last, adjusted geometric mean",[2]; [10],"32,266.80 ng h/mL"
same,"C max, adjusted geometric mean",[2]; [10],631.46 ng/mL
same,"t 1/2, adjusted geometric mean",[2]; [10],33.74 h
same,"t max, median",[2]; [10],3.00 h
same,"AUC0–inf, adjusted geometric mean","[2]; Rifampicin + midostaurin arm (midostaurin 50 mg once, rifampicin 600 mg daily)","2,699.43 ng h/mL"
same,"AUC0–last, adjusted geometric mean",[2]; Rifampicin + midostaurin arm,"2,501.48 ng h/mL"
same,"C max, adjusted geometric mean",[2]; Rifampicin + midostaurin arm,396.25 ng/mL
same,"t 1/2, adjusted geometric mean",[2]; Rifampicin + midostaurin arm,7.02 h
same,"t max, median",[2]; Rifampicin + midostaurin arm,1.50 h
same,IC50,CYP3A4/5,< 1000 nM
same,elimination t 1/2 in the presence of ketoconazole,[3]; compared with placebo,prolonged
same,"t max, Hodges–Lehmann estimate of median difference (90 % distribution-free CI)",[3]; ketoconazole + midostaurin vs placebo + midostaurin,"114.0 (92.8, 116.0) h"
same,"AUC0–inf, adjusted geometric mean","[3]; plasma, Ketoconazole + midostaurin arm (midostaurin 50 mg once, ketoconazole 400 mg daily), n = 18","110,234.87 ng h/mL"
same,"AUC0–last, adjusted geometric mean",[3]; [11],"27,237.87 ng h/mL"
same,"C max, adjusted geometric mean",[3]; [11],329.76 ng/mL
same,"t 1/2, adjusted geometric mean","[3]; plasma, Ketoconazole + midostaurin arm, for 4 volunteers only (flat terminal phase in others)",142.01^b h
same,"AUC0–inf, adjusted geometric mean","[3]; plasma, Placebo + midostaurin arm (midostaurin 50 mg once), ketoconazole study, n = 18","31,366.63 ng h/mL"
same,"AUC0–last, adjusted geometric mean",[3]; [12],"27,414.44 ng h/mL"
same,"C max, adjusted geometric mean",[3]; [12],586.78 ng/mL
same,"t 1/2, adjusted geometric mean",[3]; [12],36.60 h
same,"t max, median",[3]; [12],3.51 h
same,IC50,mutant FLT3,26 nM
same,bound to AAG,[4],88–98%
same,major pathway for elimination,[5],Fecal excretion
Cc1ncc2n1-c1ccc(Cl)cc1C(c1ccccc1F)=NC2 [Midazolam],change in AUCinf,[1],No change
same,average decrease in C max,[1]; [7],1.2 fold
same,average decrease in AUCinf,[1]; [8],1.1 fold
same,average decrease in C max,[1]; [8],1.1 fold
same,"t max, Hodges–Lehmann estimate of median difference (90 % distribution-free CI)",[1]; day 8/day 1 comparison,0.12 (−0.12 to 0.26)^c h
same,Tmax,"[1]; human, plasma, oral, 4 mg",0.5 h
same,AUC(0-inf),"[1]; human, plasma, oral, 4 mg, plasma, Midazolam (day 1), midazolam 4 mg alone",49.7 ng·h/mL
same,AUC(0-inf),"[1]; human, plasma, oral, 4 mg, plasma, Midazolam (day 8), midazolam 4 mg alone after repeated midostaurin",47 ng·h/mL
same,AUC(0-t),[1]; [13],43.1 ng·h/mL
same,AUC(0-t),[1]; [14],40.8 ng·h/mL
same,Cmax,[1]; [13],13.5 ng/mL
same,Cmax,[1]; [14],12.2 ng/mL
same,AUC(0-inf),"[1]; human, plasma, oral, plasma, Midazolam + midostaurin (day 3), midazolam 4 mg + midostaurin 100 mg",49.6 ng·h/mL
same,AUC(0-t),[1]; [15],40.2 ng·h/mL
same,Cmax,[1]; [15],11 ng/mL
same,"t max, median","[1]; plasma, Midazolam (day 8)",0.50 h
same,Adverse event: Abdominal distension,[6]; [16],0 n (%)
same,Adverse event: Any preferred term,[6]; [16],3 (15.0) n (%)
same,Adverse event: Back pain,[6]; [16],0 n (%)
same,Adverse event: Chromaturia,[6]; [16],0 n (%)
same,Adverse event: Cough,[6]; [16],0 n (%)
same,Adverse event: Diarrhea,[6]; [16],0 n (%)
same,Adverse event: Discolored feces,[6]; [16],0 n (%)
same,Adverse event: Dizziness,[6]; [16],0 n (%)
same,Adverse event: Dry skin,[6]; [16],0 n (%)
same,Adverse event: Dyspepsia,[6]; [16],0 n (%)
same,Adverse event: Feeling cold,[6]; [16],0 n (%)
same,Adverse event: Feeling hot,[6]; [16],0 n (%)
same,Adverse event: Flatulence,[6]; [16],0 n (%)
same,Adverse event: Headache,[6]; [16],2 (10.0) n (%)
same,Adverse event: Hot flush,[6]; [16],0 n (%)
same,Adverse event: Nasopharyngitis,[6]; [16],0 n (%)
same,Adverse event: Nausea,[6]; [16],0 n (%)
same,Adverse event: Palpitations,[6]; [16],0 n (%)
same,Adverse event: Pharyngolaryngeal pain,[6]; [16],0 n (%)
same,Adverse event: Restlessness,[6]; [16],0 n (%)
same,Adverse event: Rhinitis,[6]; [16],0 n (%)
same,Adverse event: Sleep disorder,[6]; [16],0 n (%)
same,Adverse event: Somnolence,[6]; [16],1 (5.0) n (%)
same,Adverse event: Vomiting,[6]; [16],0 n (%)
same,Adverse event: Abdominal distension,[6]; [17],0 n (%)
same,Adverse event: Any preferred term,[6]; [17],3 (16.7) n (%)
same,Adverse event: Back pain,[6]; [17],0 n (%)
same,Adverse event: Chromaturia,[6]; [17],0 n (%)
same,Adverse event: Cough,[6]; [17],0 n (%)
same,Adverse event: Diarrhea,[6]; [17],0 n (%)
same,Adverse event: Discolored feces,[6]; [17],0 n (%)
same,Adverse event: Dizziness,[6]; [17],0 n (%)
same,Adverse event: Dry skin,[6]; [17],0 n (%)
same,Adverse event: Dyspepsia,[6]; [17],0 n (%)
same,Adverse event: Feeling cold,[6]; [17],0 n (%)
same,Adverse event: Feeling hot,[6]; [17],0 n (%)
same,Adverse event: Flatulence,[6]; [17],0 n (%)
same,Adverse event: Headache,[6]; [17],2 (11.1) n (%)
same,Adverse event: Hot flush,[6]; [17],0 n (%)
same,Adverse event: Nasopharyngitis,[6]; [17],1 (5.6) n (%)
same,Adverse event: Nausea,[6]; [17],0 n (%)
same,Adverse event: Palpitations,[6]; [17],0 n (%)
same,Adverse event: Pharyngolaryngeal pain,[6]; [17],0 n (%)
same,Adverse event: Restlessness,[6]; [17],0 n (%)
same,Adverse event: Rhinitis,[6]; [17],0 n (%)
same,Adverse event: Sleep disorder,[6]; [17],0 n (%)
same,Adverse event: Somnolence,[6]; [17],0 n (%)
same,Adverse event: Vomiting,[6]; [17],0 n (%)
